Experimental data reported in patent US20240025903A1, “Bicyclic Compounds and Uses Thereof for the Treatment of Diseases” (Athira Pharma, Inc., priority 2020, published 2024).
Read-outs that look alike come from different tables or passages of the source.

What was measured:
MDCK cells = experiment: Cell scattering behavior assay; type: cell-based; design: key: − indicates that the compound failed to significantly promote cell scattering behavior; + indicates maximum potency at or above 100 nM; ++ indicates maximum potency at or above 10 nM; +++ indicates maximum potency at or above 1 nM; ++++ indicates maximum potency at or above 0.1 nM; conditions: 5 ng/mL HGF, 24 hours, normalized particle count vs HGF alone
Description: MDCK cells were grown under normal conditions and observed to spontaneously form tight colonies as they proliferate. MDCK cells respond to HGF treatment by moving away from each other (scattering), which is quantified to assess the amount of HGF/MET activation in the cell population. In this experiment, MDCK cells were plated in a 96-well format, treated with HGF and exemplary compounds, fluorescently stained, imaged in large fields, and scattering behavior was quantified. Quantification was determined by analyzing the number of continuous groups of cells compared to the total stained area imaged (normalized particle counts).
MDCK cells were plated at low density in black-walled imaging plates and allowed to attach overnight at 37° C. and 5% CO2 in DMEM+10% FBS. Cells were then starved to 2 hours in DMEM without FBS (“starve media”). Samples containing exemplary compounds were prepared in DMEM without FBS and included 5 ng/mL HGF protein (“treatment media”). A control curve was also prepared for each plate using HGF concentrations of 0, 5, 10, and 20 ng/mL. Starve media was replaced with treatment media and cells were incubated for 24 hours at 37° C. and 5% CO2.
After incubation, cells were fixed by replacing treatment media with cold ethanol and incubating for 20 minutes at 4° C. Cells were then rehydrated by washing with PBS and then with stain solution (fluorescent wheat germ agglutinin; WGA488 at 20 μg/mL in PBS). Cells were incubated with stain solution 30 minutes at room temperature after which stain solution was replaced with fresh PBS.
Fields of cells were imaged using an iCyte high content imager in the green wavelength. Images were converted to binary and analyzed for particle size and particle count. For the purpose of analysis, an individual cell touching no other cells or separated colonies of cells were identified as particles, and particle counts were normalized by the total signal area to account for differences in cell number. […] Compound potency was assessed by statistical increase in normalized particle count compared to HGF treatment alone.

[1] = Parallel artificial membrane permeability assay (PAMPA); type: in vitro ADME; conditions: PBS, room temperature
Description: Bioavailable drugs must permeate the cellular membranes of the lining of the digestive tract. To estimate the penetrability of exemplary compounds, the in vitro parallel artificial membrane permeability assay (PAMPA) was utilized.
Test compounds must have a standard curve in the final read plate to determine partitioned concentration of each drug. A 6-point standard curve was prepared for each compound from 0 to 200 μM in phosphate-buffered saline (PBS).
Test compound solution (300 μL in PBS) was added to the donor (bottom) well of the PAMPA plate in 5 replicates and PBS vehicle (200 μL) was added to the acceptor (top) wells of appropriate wells to match the loading of the donor plate. The bottom and top of the PAMPA plates were then sandwiched together. The PAMPA plates were then incubated at room temperature for 5 hours. After incubation, 150 μL of donor solution was added to a UV compatible plate containing the corresponding standard curve. 150 μL of acceptor well solution was added adjacent to the corresponding standard curve and donor well samples for that compound. The plate was then read using a UV plate reader.
Permeability and membrane retention were then calculated based on the following formulas:
Permeability (cm/s): (Pe)(cm/s)={−ln [1−CA(t)/Ceq]}/[A*(1/VD+1/VA)*t] (equation 1) • where: • A=filter area (0.3 cm^2); • VD=donor well volume (0.3 mL); • VA=acceptor well volume (0.2 mL); • t=incubation time (seconds); • CA(t)=compound concentration in acceptor well at time t; • CD(t)=compound concentration in donor well at time t; and • Ceq=[CD(t)*VD+CA(t)*VA]/(VD+VA).
Membrane Retention (R)=1−[CD(t)*VD+CA(t)*VA]/(C0*VD) (equation 2) • where: • CD(t), VD, CA(t), and VA are as defined for equation 1, and • C0=initial concentration in donor well (200 uM).

In vivo pharmacokinetics = experiment: In vivo pharmacokinetics; design: species or system Sprague-Dawley rats; conditions: both sexes, Sprague-Dawley, rat; for Tmax: plasma; for AUC: dose-corrected plasma AUC; for Cmax: dose-corrected plasma Cmax
Description: Administration of exemplary compounds by selected routes followed by blood collection and compound quantification in plasma was used to determine the pharmacokinetic (PK) profile of the compounds. Compounds were administered to mixed-sex Sprague-Dawley rats of at least 250 grams by dissolving the test compound in DMSO and then diluting the compound into an appropriate vehicle, either saline or saline and poly-ethylene glycol. Dosing was accomplished by either tail vein puncture (IV) or oral gavage (PO), and animals were administered compound according to their weight at 1 mL/kg. At selected intervals following administration (10, 20, 40, 60, 120, and 360 minutes), blood was collected by tail vein blood draw. Whole blood was then processed by centrifugation to produce plasma. Compound content in plasma samples was quantified by LC-MS/MS and compared to an internal standard and standard curves to determine concentration accurately. Plasma concentrations were then averaged for each time point and plotted as a function of time. Area under the curve was calculated by integration of the curve, Cmax was the highest concentration achieved in plasma, and Tmax was determined by the timing of Cmax.

[2] = Oral availability calculation; type: in vivo, Sprague-Dawley rats; conditions: both sexes, Sprague-Dawley, plasma; rat, dose corrected AUC PO / dose corrected AUC IV x 100
Text: Oral bioavailability is critical to developing small molecule therapeutics for oral administration. Calculations of oral bioavailability (% F) are accomplished by comparing in vivo pharmacokinetic data (Example B7) using IV dosing as the maximum possible exposure and determining the exposure rate after PO administration. In these studies, dose corrected AUC from PO administration was divided by dose corrected AUC from IV administration and multiplied by 100 to yield the % F. Results are shown in Table 9.

[3] = Non-specific protein binding (rapid equilibrium dialysis); type: in vitro ADME, Sprague-Dawley rats; conditions: both sexes, Sprague-Dawley, RED device, 4-hour incubation at 37° C.
Description: Plasma and tissue exposures of exemplary compounds were scaled by their non-specific affinity for protein binding in target tissues or fluids to determine the fraction of compound available for interaction with the target. Non-specific binding was determined in blood plasma and brain homogenate collected from mixed-sex Sprague-Dawley rats.
Known concentrations of test compounds were mixed with plasma or brain homogenate and incubated in the donor chamber of a rapid equilibrium dialysis (RED) device with empty PBS buffer in the receiving chamber. After a 4-hour incubation at 37° C. in an orbital shaking incubator, compound in each chamber was quantified by LC-MS/MS. The unbound fraction (fu,tissue) was calculated using the following formula:
[formula] • where: • fu,tissue is the unbound fraction in the tissue; • fu,homogenate is the ratio of concentration in the buffer chamber to concentration in the sample chamber; and • D is the dilution factor used to produce the sample.

[4] = IV (tail vein), read-out: TMAX IV
[5] = PO (oral gavage), read-out: TMAX PO
[6] = IV (tail vein), read-out: AUC IV
[7] = IV (tail vein), read-out: CMAX IV
[8] = PO (oral gavage), read-out: AUC PO
[9] = PO (oral gavage), read-out: CMAX PO
[10] = rat blood plasma, read-out: Unbound Fraction Plasma
[11] = rat brain homogenate, read-out: Unbound Fraction Brain

Papp at 5 h, 200 µM [1] [×10⁻⁶ cm/s] | Tmax (In vivo pharmacokinetics; [4]) [min] | Tmax (In vivo pharmacokinetics; [5]) [min] | AUC (In vivo pharmacokinetics; [6]) [ng·h/mL] | Cmax (In vivo pharmacokinetics; [7]) [ng/mL] | AUC (In vivo pharmacokinetics; [8]) [ng·h/mL] | Cmax (In vivo pharmacokinetics; [9]) [ng/mL] | bioavailability [2] [%] | fraction unbound at 4 h [3, 10] | fraction unbound at 4 h [3, 11] | SMILES | Potency (cell scattering) (MDCK cells) | Permeability ([1]; 5 hours)
< 2 | < 30 | 30 to 60 | 1000 to 3000 | 1000 to 3000 | 100 to 999 | 100 to 999 | 25 to 50 | 0.5 to 0.9 | 0.1 to 0.5 | CCC(C)CN1CC2N(C(=O)c3ccc(OC(F)F)cc3)CCC(=O)N2[C@@H](C)C1=O (some centres unmarked) [Compound 2a] | + (+ indicates maximum potency at or above 100 nM) | 
< 2 | < 30 | 30 to 60 | 1000 to 3000 | 1000 to 3000 | 1 to 100 | 1 to 100 | 1 to 25 | 0.1 to 0.5 | < 0.1 | CCC(C)CN1CC2N(Cc3ccc(OC(F)F)cc3)CCC(=O)N2[C@@H](C)C1=O (some centres unmarked) [Compound 6a] | +++ (+++ indicates maximum potency at or above 1 nM) | 
> 10 | < 30 | 30 to 60 | > 3000 | > 3000 | 1 to 100 | 1 to 100 | < 1 | > 0.9 | 0.5 to 0.9 | CCC(C)CN1CC2N(Cc3ccc(O)nc3)CCC(=O)N2[C@@H](C)C1=O (some centres unmarked) [Compound 7a] | ++ (++ indicates maximum potency at or above 10 nM) | 

Continued, compound first:

SMILES | Papp at 5 h, 200 µM [1] [×10⁻⁶ cm/s] | Tmax (In vivo pharmacokinetics; [4]) [min] | Tmax (In vivo pharmacokinetics; [5]) [min] | AUC (In vivo pharmacokinetics; [6]) [ng·h/mL] | Cmax (In vivo pharmacokinetics; [7]) [ng/mL] | AUC (In vivo pharmacokinetics; [8]) [ng·h/mL] | Cmax (In vivo pharmacokinetics; [9]) [ng/mL] | bioavailability [2] [%] | fraction unbound at 4 h [3, 10] | fraction unbound at 4 h [3, 11] | Potency (cell scattering) (MDCK cells) | Permeability ([1]; 5 hours)
CCC(C)CN1CC2N(C(=O)c3ccc(F)cc3)CCC(=O)N2C(C)C1=O (centres unmarked) [Compound 11, 1-(4-fluorobenzoyl)-6-methyl-8-(2-methylbutyl)hexahydro-4H-pyrazino[1,2-a]pyrimidine-4,7(6H)-dione] | > 2 | < 30 | < 30 | 1000 to 3000 | 100 to 999 | 100 to 999 | 100 to 999 | 25 to 50 | < 0.1 | 0.1 to 0.5 | ++ (++ indicates maximum potency at or above 10 nM) | 
CCC(C)CN1CC2N(C(=O)c3ccc(C(F)(F)F)cc3)CCC(=O)N2[C@@H](C)C1=O (some centres unmarked) [Compound 1a] | > 2 | < 30 | 30 to 60 | 100 to 999 | 1000 to 3000 | 100 to 999 | 1 to 100 | 25 to 50 | 0.5 to 0.9 | 0.1 to 0.5 | ++++ (++++ indicates maximum potency at or above 0.1 nM) | 
CC1C(=O)N(CCC2CCCC2)CC2N(C(=O)c3ccc(C(F)(F)F)cc3)CCC(=O)N12 (centres unmarked) [Compound 19] | < 2 |  |  |  |  |  |  |  |  |  | +++ (+++ indicates maximum potency at or above 1 nM) | 
CCC(C)CN1CC2N(C(=O)c3ccc(O)cc3)CCC(=O)N2[C@@H](C)C1=O (some centres unmarked) [Compound 8a] |  |  |  |  |  |  |  |  |  |  | +++ (+++ indicates maximum potency at or above 1 nM) | + (+ indicates permeability above 1 × 10^−5 cm/s)
CC1C(=O)N(CCC2CCC2)CC2N(C(=O)c3ccc(C(F)(F)F)cc3)CCC(=O)N12 (centres unmarked) [Compound 20] | < 2 | < 30 | > 60 | 1000 to 3000 | 1000 to 3000 | 1000 to 3000 | 100 to 999 | > 50 | 0.1 to 0.5 | 0.5 to 0.9 | +++ (+++ indicates maximum potency at or above 1 nM) | 
CC1C(=O)N(CC2CCC2)CC2N(C(=O)c3ccc(OC(F)F)cc3)CCC(=O)N12 (centres unmarked) [Compound 14] | > 2 | < 30 | > 60 | 1000 to 3000 | 100 to 999 | 1000 to 3000 | 100 to 999 | > 50 | 0.1 to 0.5 | > 0.9 |  | 
C=CCCN1CC2N(C(=O)c3ccc(C(F)(F)F)cc3)CCC(=O)N2C(C)C1=O (centres unmarked) [Compound 22] | < 2 | < 30 | 30 to 60 | 1000 to 3000 | 100 to 999 | 100 to 999 | 100 to 999 | 25 to 50 | 0.1 to 0.5 | > 0.9 | ++ (++ indicates maximum potency at or above 10 nM) | 
CCC(C)CN1CC2N(C(=O)c3ccc(C(F)(F)F)c(Cl)c3)CCC(=O)N2C(C)C1=O (centres unmarked) [Compound 12, 1-(3-chloro-4-(trifluoromethyl)benzoyl)-6-methyl-8-(2-methylbutyl)hexahydro-4H-pyrazino[1,2-a]pyrimidine-4,7(6H)-dione] | < 2 | < 30 | > 60 | 100 to 999 | 100 to 999 | 100 to 999 | 1 to 100 | 25 to 50 | 0.1 to 0.5 | 0.1 to 0.5 | ++ (++ indicates maximum potency at or above 10 nM) | 
CCCCN1CC2N(C(=O)c3ccc(OC(F)F)cc3)CCC(=O)N2C(C)C1=O (centres unmarked) [Compound 17] | > 2 |  |  |  |  |  |  |  |  |  | − | 
